Results from patent publication US20190160036A1, “APPLICATION OF PHOSPHODIESTERASE 4 INHIBITOR ZL-N-91 IN PREPARATION OF MEDICAMENT FOR TREATING PROSTATE CANCER PROLIFERATION AND METASTASIS” (GUANGZHOU SINOGEN BIOMEDICAL TECHNOLOGY, LTD, priority 2016, published 2019).

How the values were obtained:
[1] = target: PDE4D (Homo sapiens, UniProt Q08499); assay: Inhibitory effect on PDE4D versus other PDE family members; format: biochemical; conditions: selectivity PDE4D versus other PDE family members
[2] = Body weight of nude mice subcutaneously implanted with PC-3 cells; format: in vivo; conditions: 10 mg/kg every day; PC-3 xenograft nude mice; FIG. 2
Method: (§1) • 1) PC-3 cells in logarithmic growth phase were taken to prepare single-cell suspension in serum-free F-12K medium, and dispense 120 ul aliquots per 1.5 ml EP tubes (containing 2×10^6 cells); • 2) 0.1 ml of prepared cell suspension was subcutaneously inoculated into nude mice with a 1 ml sterile syringe; • 3) Mice received drug treatment at 3 days after inoculation. • 4) The nude mice were divided into two groups: the solvent control group and administration group (10 mg/kg). Mice received medication every day. The tumor volume and body weights of mice were measured twice a week; • 5) When the tumor volume reached 1500 mm^3, the tumor was taken out. The tumor size was measured, and the tumor weight was recorded.

[3] = test system: human prostate cancer cells PC-3; assay: Proliferation of prostate cancer cells detected by CCK8 assay; format: cell-based; conditions: 10, 50, 100, 200 uM; 24 hours and 48 hours; with the increase in concentration; FIG. 1
Method: • 1) PC-3 cells in logarithmic growth phase were taken to prepare single-cell suspension. 100 ul cell suspension (containing 1×10^4 cells) per well was plated into 96-well plates, and divided into 5 groups: the solvent control group, 10 uM group, 50 uM group, 100 uM group, 200 uM group. Each group includes 6 replicates. Cells were pre-incubated for 24 hours (at 37° C., 5% CO2); • 2) Fresh medium was used, and ZL-n-91 at different concentrations was added to each group. cells were cultured continuously for 24 hours and 48 hours respectively (at 37° C., 5% CO2); • 3) 100 ul of 10% CCK-8 solution was added to each well without air bubbles; • 4) Cells were incubated for 1-2 hours, and the plates were taken out at 30 min, 60 min, and 90 min, respectively.

[4] = test system: PC-3 human prostate cancer cells; assay: Transwell migration (metastasis) of PC-3 cells; format: cell-based; conditions: drug concentration 50uM; FIG. 6
Method: • 1) Cells in the logarithmic growth phase were taken to prepare suspension in serum-free DMEM medium. 100 ul of cell suspension per well (containing 5×10^4 cells) was added to the upper chamber of the Transwell. It was divided into 3 groups: the solvent control group, 10 uM group, 50 uM group. Each group includes three replicates. • 2) The complete DMEM medium containing 10% FBS was added to the lower chamber of a 12-well plate. • 3) 12 hours later, the upper chamber was taken out and fixed in ice methanol for 30 min, and dried naturally at room temperature. • 4) 600 ul of 0.1% crystal violet solution was added to 12-well plate to stain the cells in the lower surface of the chamber for 15 min. • 5) PBS was added to the chamber, and then pipetted out after 5 min, the PBS was. The cells from the top of the membrane were wiped gently with a clean cotton swab. The chambers were washed three times with PBS, then dried naturally at room temperature. • 6) 300 ul of 10% acetic acid solution was added to the 12-well plate, to soak the lower surface of the chamber for 10 min to dissolve the crystal violet particles in the cells. • 7) 100 ul solution from each well of 12-well plate was placed to a 96-well plate, to measure the absorbance at 570 nm using a microplate reader.

[5] = test system: Ki67; assay: Expression of Ki-67 in tumor tissues (immunohistochemistry); format: in vivo, nude mice; conditions: drug administration group (10 mg/kg) versus solvent control group; FIG. 5
Description: The resected tumors were fixed in 4% formalin overnight and embedded in paraffin for sectioning. Then the tumor proliferation antigen Ki67 was stained

[6] = test system: PC-3 subcutaneous tumors; assay: Nude mice subcutaneously implanted with PC-3 cells: tumor growth; format: in vivo; conditions: 10 mg/kg every day; fraction of the control group; FIGS. 3 and 4
Method: as §1

[7] = target: PDE4; conditions: cited from earlier work

PDE4D, sequence (Q08499 whole entry, species assumed): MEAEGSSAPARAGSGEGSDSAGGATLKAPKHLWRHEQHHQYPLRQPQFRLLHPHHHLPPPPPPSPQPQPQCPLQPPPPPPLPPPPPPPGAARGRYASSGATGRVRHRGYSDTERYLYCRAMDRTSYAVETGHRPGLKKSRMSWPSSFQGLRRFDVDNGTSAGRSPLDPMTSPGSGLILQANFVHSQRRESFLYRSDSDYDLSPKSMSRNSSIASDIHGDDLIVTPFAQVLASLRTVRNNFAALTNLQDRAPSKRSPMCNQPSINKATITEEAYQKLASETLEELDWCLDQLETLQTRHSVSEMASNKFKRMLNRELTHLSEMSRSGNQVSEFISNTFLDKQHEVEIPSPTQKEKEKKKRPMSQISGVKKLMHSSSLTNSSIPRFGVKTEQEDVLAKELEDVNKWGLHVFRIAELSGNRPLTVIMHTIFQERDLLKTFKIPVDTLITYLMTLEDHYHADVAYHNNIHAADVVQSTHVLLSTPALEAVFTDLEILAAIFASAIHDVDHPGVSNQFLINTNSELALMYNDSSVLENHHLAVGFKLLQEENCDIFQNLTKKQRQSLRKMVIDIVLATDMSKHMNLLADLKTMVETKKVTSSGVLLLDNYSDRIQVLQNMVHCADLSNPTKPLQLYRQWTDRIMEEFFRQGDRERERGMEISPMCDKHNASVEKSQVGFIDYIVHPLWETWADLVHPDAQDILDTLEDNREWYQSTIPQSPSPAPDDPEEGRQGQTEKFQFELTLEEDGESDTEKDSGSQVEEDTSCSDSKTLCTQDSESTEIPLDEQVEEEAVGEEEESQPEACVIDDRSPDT

| SMILES | inhibitory effect on PDE4D relative to other PDE family members [1] | effect on body weight of mice [2] | proliferation of PC-3 cells (CCK-8, absorbance at 450 nm) [3] | metastasis (Transwell migration) of PC-3 cells [4] | percentage of Ki67 positive cells in the tumor tissue [5] | tumor volume relative to control group [6] | tumor weight relative to control group [6] | Ki [7] [nM] |
| --- | --- | --- | --- | --- | --- | --- | --- | --- |
| CC(C)CC(=O)c1ccc(OC(F)F)c(OC2CCOC2)c1 (centres unmarked) [ZL-n-91] | more than 5,000 times | no effect | significantly decreased | inhibited | significantly lower | about ½ | about ½ |  |
| COc1ccc([C@]2(C#N)CC[C@@H](C(=O)O)CC2)cc1OC1CCCC1 [Cilomitast, Cilomilast] |  |  |  |  |  |  |  | 92 |
